Holding throughout (format): cell-based, human
The subject of assay [1] is CD24^+‐breast cancer cells sorted from MDA‐MB‐231. As to the kind of experiment: MTT assay in sorted breast cancer cells. The following applies: doxorubicin 0.01 μM + 1e 5 μM vs doxorubicin 0.01 μM alone. Here is the method: To evaluate the cytotoxicity profile of the potential EGFR inhibitors (compounds) against TNBC cell lines—MDA‐MB‐231, MDA‐MB‐468, and control cell line HEK293, cells were seeded at a cell density of 5 × 10^3 cells/well in complete medium onto 96‐well plates. Here, the non‐tumoral human embryonic kidney (HEK293) epithelial cells have been utilized as a control cell line to compare the IC50 values of the compounds between cancerous and non‐cancerous cell lines with a big therapeutic window. The use of HEK293 cells as compared to other non‐cancerous cell lines are easy to maintain in culture and the results obtained from HEK293 are highly reproducible and consistent.[27] Briefly, the cells were incubated at 37°C for 12 h to attain morphology. After 12 h, cells were serum starved by replacing the complete media with media containing 2% FBS to synchronize the cells. […] All the experiments were performed thrice and the IC50 values of the compounds and Doxorubicin were calculated using GraphPad Prism software version 9 (San Diego, CA, USA). Similarly, the percent inhibition of the sorted cell populations by chemotherapeutic drug, doxorubicin in the absence/presence of potent compound 1e or standard EGFR inhibitor, PD153035 was evaluated utilizing GraphPad Prism Version 9 (San Diego, CA, USA).

In assay [2] the test system is HEK‐293. As to the kind of experiment: MTT cytotoxicity assay in control cell line HEK-293. The following applies: compound alone, non-tumoral control cell line, read-out: IC50 (μM) in HEK‐293 (mean ± SD). Here is the method: TNBC cell lines (ER^−, PR^−, HER2^−)—MDA‐MB‐231 (ATCC HTB‐26) and MDA‐MB‐468 (ATCC HTB‐132) were procured from ATCC and cultured in Roswell Park Memorial Institute Media (RPMI‐1640) and Dulbecco's Modified Eagle's Medium (DMEM), respectively, supplemented with 10% FBS and 1% Penicillin–Streptomycin solution. Cells were maintained at 5% CO2 at 37°C in a humid atmosphere.[6], [26] The control cell line, Human Embryonic Kidney—HEK‐293 (ATCC CRL‐3216) was also obtained from ATCC and cultured in DMEM.[5], [25]
To evaluate the cytotoxicity profile of the potential EGFR inhibitors (compounds) against TNBC cell lines—MDA‐MB‐231, MDA‐MB‐468, and control cell line HEK293, cells were seeded at a cell density of 5 × 10^3 cells/well in complete medium onto 96‐well plates. Here, the non‐tumoral human embryonic kidney (HEK293) epithelial cells have been utilized as a control cell line to compare the IC50 values of the compounds between cancerous and non‐cancerous cell lines with a big therapeutic window. The use of HEK293 cells as compared to other non‐cancerous cell lines are easy to maintain in culture and the results obtained from HEK293 are highly reproducible and consistent.[27] Briefly, the cells were incubated at 37°C for 12 h to attain morphology. After 12 h, cells were serum starved by replacing the complete media with media containing 2% FBS to synchronize the cells. Post‐12 h of synchronization, cells were treated with an increasing concentration (0.1, 1, 10, 100 μM) of all the compounds (1a, 1b, 1c, 1d, 1e, 1f, 1g, 1h, 1i, 1j, 1k). Separately, TNBC cells were treated with increasing concentration (0.01, 0.1, 1 μM) of Doxorubicin (Sigma‐Aldrich, St Louis, MO, USA) in presence of the selected compounds (1c, 1e, 1g, 1h, 1j, and 1k) at 5 μM concentration or combination of selected compounds (1c, 1e, 1g, 1h, 1j, and 1k) at increasing concentration (1, 2.5, 5, 10 μM) in presence of Doxorubicin (0.01 μM) for 48 h. In addition, the CD24^+‐breast cancer cells and CD24^−/CD44^+‐breast CSC populations, being sorted by Magnetic Activated Cell Sorting (MACS) from MDA‐MB‐231 cells as described previously,[6] were also treated with increasing concentrations of Doxorubicin (0.01–1 μM), in the presence or absence of 1e (10–30 μM), or PD153035 (10 μM) (Sigma‐Aldrich, St Louis, MO, USA). MTT assay was performed to evaluate the cytotoxicity of these compounds against the TNBC cell lines, and the sorted populations as described previously.[6] All the experiments were performed thrice and the IC50 values of the compounds and Doxorubicin were calculated using GraphPad Prism software version 9 (San Diego, CA, USA). Similarly, the percent inhibition of the sorted cell populations by chemotherapeutic drug, doxorubicin in the absence/presence of potent compound 1e or standard EGFR inhibitor, PD153035 was evaluated utilizing GraphPad Prism Version 9 (San Diego, CA, USA).
On the technique in general: Tetrazolium assays rely on reduction of a dye to a coloured formazan, in cell work by metabolically active cells.

The subject of assay [3] is CD24^−/CD44^+‐breast CSC populations. Put plainly: Cell migration (chemotaxis), Boyden-Chamber assay, sorted cells. The following applies: sorted CD24^−/CD44^+ CSCs; Doxorubicin 0.01 μM + 1e 5 μM vs 10% FBS. Here is the method:
(§1) TNBC cell lines—MDA‐MB‐231, MDA‐MB‐468, and the sorted CD24^+‐breast cancer cells, and CD24^−/CD44^+‐breast CSC populations from MDA‐MB‐231 [6] were seeded at a density of 1 × 10^6 cells/well to evaluate their migratory potential by Boyden‐Chamber assay. […] At the end of the treatment period, the cells were plated at a density of 5 × 10^3 cells/well in the upper chamber of the Boyden chamber assembly and 10% FBS in the lower chamber was used as a chemoattractant. Separately, the cells in the upper chamber were treated with Doxorubicin (0.01–0.1 μM) alone or with the potential EGFR inhibitors (compounds—1c, 1e, 1g, 1h, 1j, and 1k (5 μM) based on their low IC50 values) or a commercial EGFR inhibitor, PD153035 (10 μM) and incubated for 4 h followed by fixation and staining as described previously.[28], [29]

The subject of assay [4] is CD24^+‐breast cancer cells. The assay is described as above. The following applies: Doxorubicin 0.01 μM + 1e 5 μM vs 10% FBS. Here is the method: as §1

As for `c1cncc(C(c2c[nH]c3ccccc23)c2c[nH]c3ccccc23)c1` [1e], the “increase of percent inhibition of cell proliferation versus doxorubicin alone” value in assay [1] came out at 1.8 folds. For the same compound, the IC50 (usually the point on the concentration scale where inhibition reaches its midpoint) in assay [2] came to 278 ± 13.5 µM. In addition, the migratory potential entry in assay [3] and in assay [4] was “significantly reduced” throughout.

(Values after publication PMC10961089, “Epidermal growth factor receptor inhibition potentiates chemotherapeutics‐mediated sensitization of metastatic breast cancer stem cells” (Cancer Reports, 2024).)
